Test results as given in patent US5563125A, “5'-deoxy-5'-(substituted)alkylthioribose compounds and their pharmaceutical compositions” (priority 1992, dated 1996).

Columns and labels:
[1] = system: L1210 cells (MTA phosphorylase-deficient); test: Growth inhibition of L1210 cells; assay type: cell-based, mouse; conditions: Mus musculus, L1210, 48 h
Description: (§1) L1210, L5178Y and MOLT-4 cell lines were grown in RPMI 1640 and 10% Nu Serum (Collaborative Research Inc., Lexington, Mass.) and CCRF-CEM cells were grown in 10% Horse Serum (Gibco Laboratories, Grand Island, N.Y.) and maintained as previously described for suspension cultures by Pera et al. in Cancer Res. 46, 1148, 1986. Cell cultures (0.3×10^5 cells/ml) were treated with each compound at 0.1 to 1000 μM to determine the concentration that inhibited growth by 50% (IC50) at 48 hr for the L1210 and L5178Y cells and at 96 hr for the CCRF-CEM and MOLT-4 cells. The incubation times allowed approximately 4 cell doublings in each cell line. All compounds were freshly prepared prior to treatment by dissolving in DMSO and diluting in serum-free media. Cells were counted by electron particle counting (Model XF' Coulter Counter; Coulter Electronics, Hialeah, Fla.).
(§2) For each compound, the concentrations required to inhibit cell growth by 50% (IC50 values) are shown in Table 7 for two murine leukemic cell lines, L1210 and L5178Y [MTA phosphorylase-deficient and MTA phosphorylase-containing, respectively] and two human leukemic cell lines, CCRF-CEM and MOLT-4 [MTA phosphorylase-deficient and MTA phosphorylase-containing, respectively]. ETA, MFETA, HETA and PTA had lower IC50 values in the L5178Y cells than in the L1210 cells. […] This differential is consistent with the possibility that, in L5178Y cells, MFETA is cleaved by MTA phosphorylase to the growth inhibitory metabolite, 5-monofluoroethylthioribose-1-phosphate (MFETR-1-P).

[2] = molecular target: T1, T. b. brucei MTA phosphorylase (Trypanosoma brucei, UniProt Q57XS4); test: T. b. brucei MTA phosphorylase substrate assay; assay type: biochemical; conditions: relative to MTA
T1 construct: MTA or analogs as substrates
T1 sequence (Q57XS4 entry or part of it): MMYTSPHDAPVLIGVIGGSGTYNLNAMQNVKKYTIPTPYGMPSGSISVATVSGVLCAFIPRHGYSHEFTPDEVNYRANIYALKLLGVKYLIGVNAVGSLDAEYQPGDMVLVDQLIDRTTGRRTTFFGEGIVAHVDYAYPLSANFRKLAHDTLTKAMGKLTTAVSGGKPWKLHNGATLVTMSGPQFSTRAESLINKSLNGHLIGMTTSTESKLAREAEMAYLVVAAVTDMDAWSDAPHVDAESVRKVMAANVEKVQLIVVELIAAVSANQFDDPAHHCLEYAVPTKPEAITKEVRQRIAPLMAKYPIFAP
Description: ^a MTA phosphorylase was assayed according to Ghoda et al., using 200
μM MTA (saturating) or analogs as substrates. Specific activities of
the dialyzed enzyme preparations were with 50 mM PO4, 104.97 n
moles/mg protein/h; without PO4, 28.27 n moles/mg protein/h. Results
are expressed as percent activity compared to as substrate with and
without PO4, respectively.

[3] = system: CCRF-CEM cells (MTA phosphorylase-deficient); test: Growth inhibition of CCRF-CEM cells; assay type: cell-based, human; conditions: Homo sapiens, 96 h
Description: as §1, §2

[4] = molecular target: T2, Mouse Liver MTA Phosphorylase (Mus musculus, UniProt Q9CQ65); test: Mouse liver MTA phosphorylase substrate/inhibitor assay; assay type: biochemical; conditions: substrate activity relative to MTA
T2 sequence (Q9CQ65 1-283): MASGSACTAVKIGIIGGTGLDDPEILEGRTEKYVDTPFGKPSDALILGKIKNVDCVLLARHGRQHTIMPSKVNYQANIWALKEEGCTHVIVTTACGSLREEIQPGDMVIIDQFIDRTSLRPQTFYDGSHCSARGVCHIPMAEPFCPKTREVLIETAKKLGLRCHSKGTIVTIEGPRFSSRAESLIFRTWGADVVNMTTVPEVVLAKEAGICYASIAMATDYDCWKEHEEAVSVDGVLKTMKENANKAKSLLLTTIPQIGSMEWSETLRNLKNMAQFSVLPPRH
Description: ^a MTA phosphorylase activity was assayed as described in Sufrin et

[5] = system: MOLT-4 cells (MTA phosphorylase-containing); test: Growth inhibition of MOLT-4 cells; assay type: cell-based, human; conditions: Homo sapiens, MOLT-4, 96 h
Description: as §1, §2

[6] = system: T. b. brucei LAB 110 EATRO; test: In vivo antitrypanosomal activity, LAB EATRO mouse infection model; conditions: 7 days, miniosmotic pump
Description: ^a Animals were treated with surgically implanted miniosmotic pumps
loaded as per manufacturers instructions with MTA, HETA or MFETA suspende

[7] = system: L5178Y cells (MTA phosphorylase-containing); test: Growth inhibition of L5178Y cells; assay type: cell-based, mouse; conditions: Mus musculus, 48 h
Description: as §1, §2

[8] = system: T. b. brucei procyclic trypanosomes (Lab 110 EATRO strain); test: In vitro antitrypanosomal activity, procyclic trypanosomes in T2 medium; assay type: cell-based, Trypanosoma brucei brucei; conditions: Trypanosoma brucei, 3-5 days
Description: The antitrypanosomal effects of HETA and other nucleosides were examined in the Lab 110 EATRO strain of T. b. brucei in culture.
Cells were cultured as described in Bacchi et al. Exp. Parasitol. 68, 392, 1989. Cells were then grown in the presence of the compounds for 3-5 days. Drugs were filtered, sterilized and added aseptically. Control cells achieved a maximum density of 1.5-3.5×10^7 /ml. Hemocytometer counts were made daily and the results were expressed as a percent of control growth. IC50 plots were obtained by graphing log (drug) vs. percent growth inhibition.
Trypanocidal Activity of MTA and MTR Analogs
against T. b. brucei procyclic trypanosomes in T2 medium.

[9] = system: P. falciparum; test: In vitro antimalarial activity of HETA; assay type: cell-based, Plasmodium falciparum; conditions: P. falciparum in vitro screen

Compound	IC50 [1]	Percent Control Activity ([2]; +50 mM PO4, 200 μM substrate)	Percent Control Activity ([2]; No PO4, 200 μM substrate)	IC50 [3]	Substrate (% Control) [4]	IC50 [5]	% Cured ([6]; 25 mg/kg/day)	MSD (mean survival in days of animals dying of infection) ([6]; 25 mg/kg/day)	Number Cured Total ([6]; 25 mg/kg/day)	% Cured ([6]; 50 mg/kg/day)	MSD (mean survival in days of animals dying of infection) ([6]; 50 mg/kg/day)	Number Cured Total ([6]; 50 mg/kg/day)	% Cured ([6]; 100 mg/kg/day)	MSD (mean survival in days of animals dying of infection) ([6]; 100 mg/kg/day)	Number Cured Total ([6]; 100 mg/kg/day)	IC50 [7]	IC50 [8]	growth of the microorganism inhibited in an in vitro screen [9]
CSC[C@H]1O[C@@H](n2cnc3c(N)ncnc32)[C@H](O)[C@@H]1O [MTA, 5'-deoxy-5'-methylthioadenosine, reference compound]	850 ± 120 µM	100%	100%	150 ± 60 µM	100 % Control	11 ± 7 µM	0%	5.0 days	0/5	0%	5.0 days	0/5	0%	5.0 days	0/5	200 ± 45 µM		
Nc1ncnc2c1ncn2[C@@H]1O[C@H](CSCCCF)[C@@H](O)[C@H]1O [MFPTA, reference compound]	600 µM	47.5%	116.4%	160 µM	66 % Control	25 µM										600 µM	120 µM	
N=C(N)c1ccc(OCCCCCOc2ccc(C(=N)N)cc2)cc1 [PENTAMIDINE]																	0.2 µM	
CCSC[C@H]1O[C@@H](n2cnc3c(N)ncnc32)[C@H](O)[C@@H]1O [ETA, reference compound]	800 ± 100 µM	76.2%	100%	200 ± 100 µM	95 % Control	20 ± 10 µM										250 ± 100 µM	138 µM	inhibited
N=C(N)c1ccc(N=NNc2ccc(C(=N)N)cc2)cc1 [BERENIL]																	0.2 µM	
